Measured values reported in PubChem BioAssay AID504561 (Southern Research Specialized Biocontainment Screening …, 2011).
pIC50: −log10 of the molar value.

tested on: HeLa-CD4-LTR-beta-gal/HL2/3 cell fusion, beta-gal luminescence; experiment: HIV-1 entry blockers, X4 Env-mediated fusion – HL2/3 with HeLa-CD4 reporter cells, 2% serum, set 2, dose response (AID 504561)

Row | Compound | pIC50
1 | Cc1c2c(=O)n(-c3nc4ccccc4s3)nc-2cc(O)n1Cc1cccs1 | 5.32
2 | Cc1c2c(=O)n(-c3nc4ccccc4s3)nc-2cc(O)n1Cc1ccccc1Cl | 5.27
3 | COc1ccc(Cn2c(O)cc3nn(-c4nc5ccccc5s4)c(=O)c-3c2C)cc1 | 5.10
4 | Cc1c2c(=O)n(-c3nc4ccccc4s3)nc-2cc(O)n1CCC(C)C | 5.28
5 | Cc1c2c(=O)n(-c3nc4ccccc4s3)nc-2cc(O)n1Cc1cccnc1 | 5.24
6 | Cc1c2c(=O)n(-c3nc4ccccc4s3)nc-2cc(O)n1CCc1cccs1 | 5.15
7 | Cc1c2c(=O)n(-c3nc4ccccc4s3)nc-2cc(O)n1Cc1ccccc1 | 4.56
8 | COc1ccccc1Cn1c(O)cc2nn(-c3nc4ccccc4s3)c(=O)c-2c1C | 5.34
9 | Cc1c2c(=O)n(-c3nc4ccccc4s3)nc-2cc(O)n1CCc1ccc(O)cc1 | 5.01
10 | Cc1c2c(=O)n(-c3nc4ccccc4s3)nc-2cc(O)n1C1CC1 | 5.45
11 | COc1ccc(CCn2c(O)cc3nn(-c4nc5ccccc5s4)c(=O)c-3c2C)cc1 | 5.16
12 | Cc1c2c(=O)n(-c3nc4ccccc4s3)nc-2cc(O)n1Cc1ccc(F)cc1 | 5.41
13 | Cc1c2c(=O)n(-c3nc4ccccc4s3)nc-2cc(O)n1Cc1ccncc1 | 5.02
